# Test: in vitro
# Settings: human, hela cells, % viability
row,SMILES,"viability at 28.5 h, 10 µM"
1,CCc1nc(C2CCCN2c2ncc(C#N)cc2Cl)no1 (centres unmarked) [CBK305183],91.1%
2,c1csc(N2CCN(c3nccn4cnnc34)CC2)n1 [CBK305185],103%
3,CCNS(=O)(=O)c1ccc2c(c1)N(Cc1nc(C)c(C)o1)CC2 [CBK305189],51.5%
4,Cc1ccnc(NCC2CCN(c3cc(=O)n4oc(C)cc4n3)C2)c1 (centres unmarked) [CBK305191],84.6%
5,CC(=O)c1cccc(NC(=O)N(CCO)C2CCCc3ccccc32)c1 (centres unmarked) [CBK305195],83%
6,Cc1cc(C)n2nc(C(=O)N3CCC(C)CC3c3ccco3)nc2n1 (centres unmarked) [CBK305196],84.8%
7,CC(C)(C)c1n[nH]c(C2CN(C(=O)CCCn3cccn3)CCO2)n1 (centres unmarked) [CBK305198],88.1%
8,Cn1ccc(C(=O)N2CCOC(c3nc(C(C)(C)C)n[nH]3)C2)cc1=O (centres unmarked) [CBK305201],106%
9,CCc1nc(C)c(C(C)N(C)CC(=O)NCc2ccco2)s1 (centres unmarked) [CBK305203],86.6%
10,CC(C)(C)c1n[nH]c(C2CN(C(=O)CCc3ccco3)CCO2)n1 (centres unmarked) [CBK305204],81.5%
11,CCn1ncc2c1CCCC2NC1CCN(CC(F)(F)F)C1=O (centres unmarked) [CBK305206],89.5%
12,COCCn1c(SCc2c(C)nc3ccccn23)nc(C)c1C [CBK305212],80.1%
13,CCc1nnc(CN2CCCC(c3cc(C(N)=O)[nH]n3)C2)o1 (centres unmarked) [CBK305213],74.5%
14,CC(CC(=O)N1CCOC(c2nc(C(C)(C)C)n[nH]2)C1)n1cccc1 (centres unmarked) [CBK305214],82.8%
15,CN(c1ccccc1)C1CCN(c2nc3c(cnn3C)c(=O)[nH]2)CC1 [CBK305215],96.3%
16,COc1ncccc1CNC(=O)Nc1cccn(CC(F)(F)F)c1=O [CBK305216],113%
17,CN(C)c1cccc(C2CCCN2c2nc3c(cnn3C)c(=O)[nH]2)c1 (centres unmarked) [CBK305220],78.6%
18,O=C(NCC(CO)Cc1ccccn1)c1ccc2cc[nH]c2c1 (centres unmarked) [CBK305222],81.6%
19,O=C(NC1CCN(CC(F)(F)F)C1=O)c1cc(Cl)ccn1 (centres unmarked) [CBK305223],98.6%
20,CCN1CCCC(NC(=O)COc2nn(C)c3nc(C)cc(C)c23)C1 (centres unmarked) [CBK305224],113%
21,CN1CCCc2ccc(S(=O)(=O)Nc3nc4ncccn4n3)cc21 [CBK305226],85.7%
22,CCn1cnc(S(=O)(=O)N2CCC(OCc3ccccc3)CC2)c1 [CBK305228],73.1%
23,Cc1cc(NC(=O)CN2CCOC(CNc3cccnn3)C2)on1 (centres unmarked) [CBK305231],109%

row,SMILES,"viability at 28.5 h, 10 µM"
1,COc1cccc(CC(=O)N2CCOc3ncccc32)c1 [CBK305235],98.4%
2,CC1(C)CCCC1NC(=O)NCc1cccc(-c2nnc[nH]2)c1 (centres unmarked) [CBK305236],83.9%
3,Cc1cc(NC(=O)CN(C)CCNC(=O)C2CCCC2)no1 [CBK305237],84.9%
4,Cc1cc(C(=O)CSc2nccc(C(F)(F)F)n2)c(C)n1C1CC1 [CBK305238],80%
5,CS(=O)(=O)N1CCCc2cc(-c3csc(-c4cnccn4)n3)ccc21 [CBK305239],95.4%
6,Cc1cc(C2CCCN(C(=O)CC3OCCc4sccc43)C2)n[nH]1 (centres unmarked) [CBK305241],94.3%
7,Cc1ccc(C(=O)NC2CCN(C(=O)Nc3cc(Cl)ccc3F)CC2)s1 [CBK305243],88.8%
8,Cc1nn(C)c(Cl)c1CN1CCOC(c2ccccc2)C1 (centres unmarked) [CBK305244],83.2%
9,Cc1nc2ccccc2n1CC(=O)N(Cc1cccnc1)C1CC1 [CBK305248],109%
10,Cc1cc(O)nc(C(C)N2CCN(Cc3noc(C(C)(C)C)n3)CC2)n1 (centres unmarked) [CBK305249],95.4%
11,CCn1c(CN2CCCC2c2noc(C)n2)nc2cc(F)ccc21 (centres unmarked) [CBK305250],55.9%
12,O=C(CN1CC(O)CC1c1cccc(C(F)(F)F)c1)NCc1cccs1 (centres unmarked) [CBK305253],82.6%
13,Cc1nc(-c2ccc(NCC(O)c3ccco3)nc2)[nH]c(=O)c1C (centres unmarked) [CBK305254],94.6%
14,Cc1cccn2c(=O)cc(CN3CCc4c(nc(C5CC5)n4C)C3)nc12 [CBK305256],99.2%
15,CC(C)(C)CC(=O)NS(=O)(=O)c1cccc(-c2nnco2)c1 [CBK305258],78%
16,Cc1cccc(CN2CCC(NC(=O)NCc3ccn(C)c3)CC2)c1 [CBK305259],105%
17,Cc1ccn(-c2ccc(N3CCC4(CC3)OCCO4)nn2)n1 [CBK305263],91.5%
18,O=C1C(n2c(=O)[nH]c3ccccc3c2=O)CCN1CC(F)(F)F (centres unmarked) [CBK305264],104%
19,COCCNC(=O)CN(C)c1cnc2ccccc2n1 [CBK305265],89.2%
20,Cc1cc(C)n(CC(=O)N2CCCCC2C(=O)O)n1 (centres unmarked) [CBK305266],91.3%
21,O=C(CC1CCCO1)NS(=O)(=O)c1cccc(-c2nnco2)c1 (centres unmarked) [CBK305267],94.3%
22,N#CC1(NC(=O)CN2CCOC(Cn3cccn3)C2)CCCCC1 (centres unmarked) [CBK305268],87.2%
23,Cc1nc(CNC(=O)c2nn(-c3cccc(C(C)C)c3)cc2O)no1 [CBK305269],89%

row,SMILES,"viability at 28.5 h, 10 µM"
1,CC(CNc1cc(=O)n2ccccc2n1)CN1CCCC1 (centres unmarked) [CBK305270],99.1%
2,COc1ccc(CN2CCCN(C(=O)c3ccc(C#N)cc3)CC2)cc1 [CBK305273],91.4%
3,O=C(c1cccc(O)c1)N1CCN(Cc2cn3ccsc3n2)CC1 [CBK305275],76%
4,CCOC(=O)C(CNC(=O)c1c(C)nn(C)c1C)Cc1ccccc1 (centres unmarked) [CBK305276],90%
5,CCn1ncc2c1CCCC2NC1CCN(c2ccccc2F)C1=O (centres unmarked) [CBK305279],108%
6,CCOc1cccc(CNC(=O)N2CCC(Cc3cnn(C)c3)C2)c1 (centres unmarked) [CBK305280],115%
7,COc1ccc(CN2CCCN(C(=O)c3cccc(C#N)c3)CC2)cc1 [CBK305281],88.5%
8,CCC(C)(NC(=O)c1ccn(-c2cc(C)ccc2OC)n1)C(=O)OC (centres unmarked) [CBK305282],78.7%
9,CC(C)OC(=O)Cc1nc(CN2CCc3sccc3C2C)cs1 (centres unmarked) [CBK305284],85.3%
10,COCCn1cc(C(=O)N2CCOC3CCCCC32)c2ccccc21 (centres unmarked) [CBK305288],113%
11,COCCn1cc(C(=O)N2CCCC2c2cc(C)on2)c2ccccc21 (centres unmarked) [CBK305289],90.4%
12,COCCN1CCCC(NS(=O)(=O)c2cccc(C(C)=O)c2)C1 (centres unmarked) [CBK305290],94.7%
13,Cc1nc(C)n(CC2CCCN(CC(=O)NCc3ccccn3)C2)n1 (centres unmarked) [CBK305291],86.1%
14,CC(=O)Nc1cccc(-n2nnnc2SCC2CCCN(C)C2)c1 (centres unmarked) [CBK305294],108%
15,CCOc1cc(NC(=O)N2CCC(Cc3cnn(C)c3)C2)ccc1C (centres unmarked) [CBK305295],105%
16,Cc1nc(C)c(C(=O)N2CCCC(C(=O)c3ccc(F)cc3)C2)s1 (centres unmarked) [CBK305296],104%
17,Cn1cc(CCNC(=O)NC2CCN(Cc3ccccn3)CC2)cn1 [CBK305297],102%
18,CCOCCCC(=O)N1CCN(Cc2nnc3n2CCCCC3)CC1 [CBK305298],90.9%
19,CC(C(=O)NC1(C#N)CCCCC1)N1CCOC(c2nccs2)C1 (centres unmarked) [CBK305299],80.9%
20,CSC(C)C(=O)N(C)C1CCN(c2ncnc3ccccc23)CC1 (centres unmarked) [CBK305300],83.4%
21,Cc1cccc(C(C)CNC(=O)N2CCC(Cc3cnn(C)c3)C2)c1 (centres unmarked) [CBK305301],96.9%
22,CCCN(CC(=O)NCc1ccco1)Cc1nnc(-c2ccco2)o1 [CBK305302],111%
23,CC(C)(C)C(=O)Nc1ccc(F)c(C(=O)N2CCc3[nH]ncc3C2)c1 [CBK305303],104%

row,SMILES,"viability at 28.5 h, 10 µM"
1,Cc1noc(C)c1CNS(=O)(=O)N1CCOC(c2ccccc2)C1 (centres unmarked) [CBK305306],83.2%
2,CCOC1CCCN(C(=O)c2cccnc2Nc2cccc(F)c2)C1 (centres unmarked) [CBK305307],86.9%
3,Cc1nc(C)c(CCC(=O)N2CCCCC2Cn2cccn2)c(=O)[nH]1 (centres unmarked) [CBK305310],102%
4,CC(Oc1cccc(F)c1)C(=O)N(Cc1cccnc1)CC1CCCO1 (centres unmarked) [CBK305313],108%
5,Cn1c(C2CC2)nc2c1CCN(Cc1cn3cc(Cl)ccc3n1)C2 [CBK305314],92.8%
6,CCN(C(=O)Cc1cc(OC)ccc1Br)c1cccnc1 [CBK305318],97.7%
7,CC(NC(=O)CC1(N2CCOCC2)CCCC1)c1cccc(C#N)c1 (centres unmarked) [CBK305320],106%
8,CC(NC(=O)N1CCCN(Cc2cccs2)CC1)c1nncn1C (centres unmarked) [CBK305322],80.3%
9,N#Cc1cccc(C(=O)N2CCCN(Cc3ccc(Cl)cc3)CC2)c1 [CBK305323],95.9%
10,Cn1cc(CNCC2CCCN2c2cccnn2)c(-c2cccnc2)n1 (centres unmarked) [CBK305326],96.2%
11,CC(C)c1csc(C2CCN(C(=O)CCc3ccsc3)CC2)n1 [CBK305327],104%
12,Cc1cnn(C2CCCN(C(=O)CC3OCCc4sccc43)C2)c1 (centres unmarked) [CBK305329],84.6%
13,CCCc1nc(CN2CCN(c3ccc4nncn4n3)CC2)cs1 [CBK305330],97.7%
14,Cc1cc(C)n(CC2CCCCN2CC(=O)NC(C)c2ccco2)n1 (centres unmarked) [CBK305331],87.9%
15,N#Cc1c(CN2CCCC(c3noc(C4CC4)n3)C2)cn2ccccc12 (centres unmarked) [CBK305332],98.7%
16,Cc1cc(N2CCN(Cc3nc(C(C)(C)C)no3)CC2)nc(C(C)C)n1 [CBK305333],96.3%
17,Cc1cnn(CCC(=O)N2CCOC(c3nc(C(C)(C)C)n[nH]3)C2)c1 (centres unmarked) [CBK305336],110%
18,COc1ccc(CNC(=O)CN2CCCC(Cn3cncn3)C2)cc1 (centres unmarked) [CBK305339],88.9%
19,Cc1ccc(C(CNCc2cn(C)nc2-c2cccnc2)N(C)C)cc1 (centres unmarked) [CBK305343],109%
20,Cc1cccc(OCCNC(=O)CN2CCCC2Cn2cncn2)c1 (centres unmarked) [CBK305345],102%
21,CN(C(=O)c1ccccn1)C1CCN(c2ncnc3ccccc23)CC1 [CBK305346],91.8%
22,CCc1nc(CN2CCCC(NC(C(N)=O)c3ccccc3)C2)no1 (centres unmarked) [CBK305348],97.4%
23,COc1c(C)cnc(CNC2CCCN(Cc3noc(C)n3)C2)c1C (centres unmarked) [CBK305350],92.3%
